Measurements as given in US20130202614A1, “AUTOTAXIN PATHWAY MODULATION AND USES THEREOF” (B.S.R.C. "ALEXANDER FLEMING", priority 2010, published 2013).

Experiments:
Type in all cases: cell-based, mouse
primary SFs [1] = assay: MMP production by SFs (RT-PCR); conditions: MMP-9
Experimental: Total RNA was extracted from subconfluent cultured SFs with the TRIzol reagent (Invitrogen Ltd, Paisley, PA4 9RF, UK Carlsbad, Calif. 92008) according to the manufacturer's instructions. RNA yield and purity were determined spectrophotometrically at 260/280 nm. cDNA synthesis was performed using the MMLV reverse transcriptase (Promega, Madison, Wis., United States Madison, Wis. 53711 USA). In all cases the normalization was performed in relation to the B2m internal control.
SQ PCR was performed by 20-27 cycles of denaturation at 95° C. for 30 s, annealing at 56-60° C. (depending on the Tm of each individual set of primers) for 30 s, and extension at 72° C. for 1 min, in a final volume of 20 μl. The products were separated by electrophoresis on 1.5% agarose gel and stained with ethidium bromide. […] Quantitative real-time PCR was performed using the iCycler Iq Real-Time detection system and the IQ SYBR Green Supermix (Bio-Rad Laboratories, Hercules, Calif., United States), according to the manufacturer's instructions, for one cycle of 95° C. for 3 min, and 42 cycles of denaturation at 95° C. for 30 s and annealing at 56-58° C. for 45 s. […]

primary SFs [2] = assay: SF actin cytoskeleton rearrangement (phalloidin F-actin staining); conditions: phaloidin-F-actin staining
Experimental: Cells were cultured on glass coverslips, grown in the presence of serum to subconfluence, and starved for 24 h by replacing the medium with serum-free medium containing 0.1% bovine serum albumin. Then the cells were treated with LPA and other components in serum-free medium for 4 h, fixed with 4% PFA and stained for F-actin with TRITC-conjugated phalloidin according to the manufacturer's protocol.

BMD macrophages = assay: Macrophage proliferation upon LPA addition; conditions: primary cultures
primary SFs [3] = assay: Synovial fibroblast proliferation assay ([3H]thymidine incorporation); conditions: for LPA responses of wt SFs (LPA-induced proliferation): pre-treated with inhibitor prior to LPA stimulation
Experimental: Primary SFs were isolated from 6-8 week old mice as previously described. Briefly, mouse joint specimens were minced and digested with type IV collagenase. The released cells were grown in Dulbecco's modified Eagle's medium (DMEM) supplemented with fetal bovine serum (FBS) and penicillin-streptomycin. Isolated fibroblasts adhered on culture dishes were maintained under standard conditions (37° C. and 5% CO2) and used for the experiments between the third and fifth passages.
Cells were starved with serum-free medium before treatment due to the presence of lysophospholipids in the serum Starvation medium is supplemented with 0.2% fatty-acid-free BSA. After routine starvation, cells were stimulated with various concentrations of the tested compounds (LPA, LPC, S1P or TNF) as indicated in details below. Where indicated cells were pre-treated with the inhibitors of ERK MAPK, p38 MAPK, JNK and Rho kinase for 3 hours prior to LPA stimulation. At the moment of cell treatment, the culture medium was replaced with fresh serum-free medium containing various concentrations of the tested compounds.
Preconfluent cell cultures were starved overnight, incubated for 24 h with LPA and the rest tested compounds and finally exposed to 0.5 μCi/ml of [^3H]thymidine. Cells were then washed, harvested by trypsinization and blotted on a membrane. The radioactivity of incorporated [^3H]-thymidine was determined by liquid scintillation counting.

primary SFs [4] = assay: SF cell migration assay (Boyden chambers); conditions: LPA stimulation
Experimental: Modified Boyden chambers with 8-μm pores (Corning/Costar) were used where the lower surface of the membrane was coated with 10 μg/ml human fibronectin for 2 hours at 37° C. Cells were harvested with trypsin/EDTA, washed with PBS, and resuspended to 1×10^6 cells per ml. The suspension was added to the upper chamber, and the cells were allowed to migrate at 37° C., 5% CO2, for 4 hours. Non-migratory cells were removed from the upper surface of the membrane while migratory cells in the lower compartment of the chambers were washed with PBS and stained with 0.2% crystal violet in 10% ethanol for 10 min. After extensive washing in H2O, the cells were lysed and absorbance was measured at 570 nm with a SPECTRAmax photometer.

primary SFs [5] = assay: SF adhesion assay (fibronectin); conditions: LPA stimulation
Experimental: This assay was performed on plates coated with human fibronectin. Briefly, cells were allowed to adhere to the substrate, and unbound cells were removed with sequential washes with PBS. Adhered cells were then stained with crystal violet, solubilized, and their absorbance was determined at 570 nm. The experiment was performed in triplicates.

BDM macrophages = assay: BMDM cytokine secretion (Luminex); conditions: upon LPA stimulation
primary SFs [6] = assay: SF proinflammatory cytokine secretion (multiplex Luminex ELISA); conditions: especially IL-6

Compound: 1-oleoyl-LPA (18:1)
- production of matrix metaloproteinases (MMPs) by SFs (primary SFs [1]): stimulated
- SF actin cytoskeleton (primary SFs [2]): rearrangements of their actin cytoskeleton
- proliferation of macrophages (BMD macrophages): no effects
- proliferation of wt SFs (primary SFs [3]; 3H-thymidine incorporation): stimulated the proliferation
- synergy with TNF on SF proliferation (primary SFs [3]; different concentrations of LPA and/or TNF): synergizes with TNF
- SF migration (primary SFs [4]): increased
- SF adhesion (primary SFs [5]): increased
- cytokine secretion from BDM macrophages (BDM macrophages): No differences
- proinflammatory cytokine secretion from SFs (primary SFs [6]): stimulated proinflammatory cytokine secretion

Compound: C[C@@H](N)[C@H]1CC[C@H](C(=O)Nc2ccncc2)CC1 [Hybridoma Y27632]
- LPA responses of wt SFs (LPA-induced proliferation) (primary SFs [3]): inhibited

Compound: CCCCCCCC/C=C\CCCCCCCC(=O)OC[C@@H](O)COP(=O)([O-])OCC[N+](C)(C)C [LPC, 1-oleoyl-LPC (18:1)]
- proliferation of mRA SFs (primary SFs [3]; 3H-thymidine incorporation): did stimulate the proliferation
- proliferation of wt SFs (primary SFs [3]; 3H-thymidine incorporation): no effects

Compound: COc1cccc(-c2cc(=O)c3ccccc3o2)c1N [PD98059]
- LPA responses of wt SFs (LPA-induced proliferation) (primary SFs [3]): inhibited

Compound: C[S+]([O-])c1ccc(-c2nc(-c3ccncc3)c(-c3ccc(F)cc3)[nH]2)cc1 (centres unmarked) [SB203580]
- LPA responses of wt SFs (LPA-induced proliferation) (primary SFs [3]): inhibited
